“Also recorded” adds a separate entry of the source. Like-named read-outs stand apart in the source and are kept apart here.
Experiments:
[1] = system: human hepatocarcinoma cells (Hep G2); test: Cytotoxicity assay (resazurin) in Hep G2 cells; type: cell-based; conditions: for Cytotoxicity (% cell growth inhibition) at 1 µM ± SD: Hep G2, 1 µM
From the text: (§1) Mouse L-929 fibroblasts (NCTC clone 929, ECACC 88102702) were used for both drug toxicity and infection assays. Cell line was obtained from Dr. Concepció Soler, Dept. Pathology & Experimental therapeutics, Faculty of Medicine and Health Sciences, University of Barcelona, Spain. Human hepatocarcinoma Hep G2 cells (American Type Culture Collection (ATCC HB-8065)) were employed only in the drug toxicity assays and were obtained from Dr. Neus Agell, Cell Biology Research Group, Faculty of Medicine and Health Sciences, University of Barcelona, Spain.
Cells were seeded by trypsinization in 96-well microplates (L-929: 4 × 10^3 cells/well; Hep G2: 1.5 × 10^4 cells/well) and incubated for 24 h at 37 °C to allow cell attachment. On the following day, the medium was discarded and replaced with a fresh medium containing the different concentrations of the drugs. […] Medium, growth, and drug blanks were used in each test as controls. Plates were incubated again for another 24 h. After treatment, 20 µL of resazurin diluted in 1X phosphate-buffered saline (PBS; Sigma Aldrich) was added at a final concentration of 70 µM. The plates were incubated for another 24 h, after which fluorescence was measured in a microplate reader (FLUOstar OPTIMA, BMG LABTECH GmbH, Ortenberg, Germany) at an excitation wavelength of 530 nm and an emission wavelength of 590 nm. Each concentration was tested in triplicate and the experiments were repeated three times independently. Results indicated the percentage of toxicity (% T value). (3) % Toxicity=100−(AE−AEB)/(AC−ACB)×100 where AE is the absorbance of the experimental group, AEB the absorbance of the drug blank, AC the absorbance of the untreated cells, and ACB the absorbance of the culture medium blank. […]

[2] = system: intact epimastigotes of T. cruzi; test: Oxygen consumption inhibition analysis (high-resolution respirometry); type: cell-based, Trypanosoma cruzi; conditions: for % Oxygen Uptake Inhibition (¾ IC50): compound at ¾ IC50; for effect on respiratory inhibition (in words): ½ and ¾ IC50
Description: Intact epimastigotes were collected by centrifugation, washed twice in PBS, and resuspended with respiration buffer containing 125 mM sucrose, 65 mM KCL, 10 mM Tris-HCl (pH 7.2), 1 mM […], and 2.5 mM K2PO4. They were then added to a final concentration of 25 × 10^6 cells/mL.
To evaluate the effect of the different drugs on mitochondrial function, we measured mitochondrial respiration in the cells before and after the addition of increasing volumes of the compounds. Each compound was added in titrations until reaching concentrations of ½ and ¾ IC50. Finally, antimycin A (AA) was added to determine the residual oxygen consumption (ROX) through the inhibition of complex III of the electron transport chain. The ROX value was subtracted from the O2 flux as a baseline for all the respiratory states.
Mitochondrial respiration was measured by high-resolution respirometry (OROBOROS Oxygraph-2k; OROBOROS Instruments, Innsbruck, Austria). Data were analyzed by using the Software DatLab Online Data Acquisition and Analysis (OROBOROS Instruments, Innsbruck, Austria). All respirometry assays were performed at a constant temperature of 28 °C, with the volume of each chamber being 2 mL. The oxygen flux values are expressed relative to the cell concentration per second (pmol/sec/10^6 cells). The effect of each compound on mitochondrial function is shown as the percentage of inhibition of oxygen flux.

[3] = system: epimastigotes of T. cruzi (CL strain, clone B5); test: Epimastigote susceptibility assay (monotherapy); type: cell-based, Trypanosoma cruzi
Description: The CL-B5 strain was stably transfected with the Escherichia coli β-galactosidase gene (lacZ) and routinely maintained in exponential growth by weekly passages. Trypomastigotes of the CL-B5 strain were obtained as previously reported.
The screening assays were performed in 96-well microplates (WWR Int LLC) containing serially diluted concentrations of each compound and seeded with 2.5 × 10^5 epimastigotes/mL harvested during the exponential growth phase. Growth, medium, and drug blanks were used in each assay as controls. An internal control of the reference drug, benznidazole, was also included. After 72 h at 28 °C, 50 µL of the substrate chlorophenol red-β-D-galactopyranoside (CPRG; Roche) diluted in 0.9% Triton X-100 solution (EMD, Darmstadt, Germany) were added at a final concentration of 200 µM. Then, after 3 h at 37 °C, measurements were performed in a scanning multiwell spectrophotometer (ELISA Multiskan Reader, BioTek Instruments, Inc., Winooski, VT, USA) at 595 nm. Each concentration was tested in triplicate and the experiments were performed three times independently. The efficacy of the compounds was calculated by determining the percentage of epimastigote growth (% EG value) as follows:(1) % Epimastigote growth=(AE−AEB)/(AC−ACB)×100 where AE is the absorbance of the experimental group, AEB the absorbance of the drug blank, AC the absorbance of the control group, and ACB the absorbance of the culture medium blank. The IC50 values (the drug concentration that eliminates 50% of the parasites) were determined for each compound using the GraphPad Prism software (Version 5.0.0 for Windows, GraphPad Software, San Diego, CA, USA).

[4] = system: murine L-929 fibroblasts (NCTC clone 929); test: Cytotoxicity assay (resazurin) in L-929 fibroblasts; type: cell-based, mouse
From the text: as §1
Cells were seeded by trypsinization in 96-well microplates (L-929: 4 × 10^3 cells/well; Hep G2: 1.5 × 10^4 cells/well) and incubated for 24 h at 37 °C to allow cell attachment. On the following day, the medium was discarded and replaced with a fresh medium containing the different concentrations of the drugs. Hep G2 cells were treated with concentrations of 100, 10, and 1 µM of the different drugs, while L-929 cells were treated with a wider range of concentrations in order to calculate the IC50 value (the drug concentration that inhibits 50% of cell growth). Medium, growth, and drug blanks were used in each test as controls. Plates were incubated again for another 24 h. After treatment, 20 µL of resazurin diluted in 1X phosphate-buffered saline (PBS; Sigma Aldrich) was added at a final concentration of 70 µM. The plates were incubated for another 24 h, after which fluorescence was measured in a microplate reader (FLUOstar OPTIMA, BMG LABTECH GmbH, Ortenberg, Germany) at an excitation wavelength of 530 nm and an emission wavelength of 590 nm. Each concentration was tested in triplicate and the experiments were repeated three times independently. Results indicated the percentage of toxicity (% T value). (3) % Toxicity=100−(AE−AEB)/(AC−ACB)×100 where AE is the absorbance of the experimental group, AEB the absorbance of the drug blank, AC the absorbance of the untreated cells, and ACB the absorbance of the culture medium blank. For the L-929 fibroblasts, the IC50 values (the drug concentration that inhibits 50% of cell growth) were calculated for each compound using the GraphPad Prism software.

[5] = IC50 for L-929 fibroblasts / IC50 for T. cruzi epimastigotes
[6] = Homo sapiens, HepG2, read-out: IC50 (µM) Hep G2 cell growth inhibition
[7] = Trypanosoma cruzi, CLB strain, 72 h at 28 °C, mean ± SD, read-out: IC50 (µM) in epimastigotes of T. cruzi
[8] = Mus musculus, L929, read-out: IC50 (µM) L-929 cell growth inhibition

Structure (SMILES)	Cytotoxicity (% cell growth inhibition) at 1 µM ± SD ([1]; n = 9) [%]	Cytotoxicity (% cell growth inhibition) at 10 µM ± SD ([1]; Hep G2, 10 µM, n = 9, 10 µM) [%]	IC50 ([1]; read-out: IC50 (µM) Hep G2 cell growth inhibition, Hep G2) [µM]	% Oxygen Uptake Inhibition (½ IC50) ([2]; compound at ½ IC50) [%]	% Oxygen Uptake Inhibition (½ IC50) ([2]; compound at ½ IC50, listed as natural prodigiosin) [%]	Oxygen Uptake (pmol/sec/Million Cells) ([2]; compound at ½ IC50, n = 4)	Selectivity index (SI), Epimastigotes [3, 5]	IC50 ([3]; read-out: IC50 (µM) in epimastigotes of T. cruzi, CLB strain, 72 h at 28 °C, mean ± SD) [µM]	IC50 ([4]; Mus musculus, L929, read-out: IC50 (µM) L-929 cell growth inhibition, L-929) [µM]	IC50 [1, 6] [µM]	IC50 [3, 7] [µM]	IC50 [4, 8] [µM]	IC50 ([1]; Homo sapiens, HepG2, read-out: IC50 (µM) Hep G2 cell growth inhibition, Hep G2) [µM]	% Oxygen Uptake Inhibition (¾ IC50) [2] [%]	Oxygen Uptake (pmol/sec/Million Cells) ([2]; compound at ¾ IC50, n = 4)	IC50 ([3]; Trypanosoma cruzi, 72 h, read-out: IC50 (µM) in epimastigotes of T. cruzi, CLB strain, 72 h at 28 °C, mean ± SD) [µM]	% Cytotoxicity ± SD ([4]; L-929, 16 µM, n = 9, 16 µM) [%]	IC50 ([4]; read-out: IC50 (µM) L-929 cell growth inhibition, L-929) [µM]	effect on respiratory inhibition (in words) [2]	Selectivity index (SI), Epimastigotes [3]
CCCCCC1=C/C(=C/c2[nH]c(-c3ccc[nH]3)cc2OC)N=C1C [Natural prodigiosin, prodigiosin]	2.29 ± 3.97	87.97 ± 5.94	6.02 ± 0.5	72.8	73	0.73 ± 0.06	9.25	0.54 ± 0.25	5 ± 0.83	–	–	–	–	–	–	–	–	–	–	–
O=C(Cn1ccnc1[N+](=O)[O-])NCc1ccccc1 [Benznidazole, reference compound]	–	–	–	–	–	–	72.37	–	–	> 100	19 ± 7.07	1372.3 ± 0.5	–	–	–	–	–	–	–	–
CCCCCC1=C/C(=C/c2[nH]c(-c3ccc[nH]3)cc2OC)N=C1C [Synthetic prodigiosin, prodigiosin]	15 ± 6.12	–	–	13.58	–	2.33 ± 0.09	6.65	–	–	–	–	–	5.15 ± 0.39	35.18	1.74 ± 0.17	0.46 ± 0.03	95.75 ± 0.06	3.06 ± 0.01	–	–
COC1=CC(c2cc3ccccc3[nH]2)=N/C1=C\c1[nH]c(C)cc1C [Obatoclax, reference compound]	–	–	–	0	–	2.69 ± 0	–	–	–	8.18 ± 1.87	3.46 ± 0.96	5.83 ± 1.07	–	0	2.69 ± 0	–	–	–	little or no effect	1.68
CCc1c(-c2ccc[nH]2)[nH]c(/C=N/c2ccc(C(C)(C)C)cc2)c1C [MM4]	–	–	–	2.60	–	2.62 ± 0.04	2.76	–	–	52.5 ± 9.21	5.08 ± 0.62	14 ± 1.28	–	2.97	2.61 ± 0.04	–	–	–	little or no effect; also recorded: no inhibitory effect	–
CCc1c(-c2ccc[nH]2)[nH]c(/C=N/C2CCCCC2)c1C [MM3]	–	–	–	41.26	–	1.58 ± 0.05	2.70	–	–	46 ± 8.15	4.52 ± 1.43	12.2 ± 0.28	–	42	1.56 ± 0.06	–	–	–	–	–
